# Laboratory results: patent US20050032042A1, “Anti-retroviral analysis by mass spectrometry” (priority 2003, published 2005)
# Columns and labels:
# [1] = in vivo; cited from earlier work
# [2] = in vivo; cited from earlier work; remark: listed apart in the source
# [3] = cited from earlier work
# [4] = for Saliva (s) vs Total Plasma (tp) regression equation / r, saliva vs total plasma / Free Plasma (f) vs Total Plasma (tp) regression equation / r, free plasma vs total plasma: human; for Saliva (s) vs Total Plasma (tp) regression equation / r, saliva vs total plasma / correlation of free drug or saliva drug concentration with total drug concentration (in words): in vivo
# Protocol: Protein binding and free drug measurement: An Institutional Review Board (IRB) approved protocol was developed for the assessment of free drug concentrations by measuring both the saliva and free drug in plasma utilizing the tandem mass spectrometric methods for plasma or serum measurement. […] A bigger sample is injected for the free drug measurement (50 uL vs 10 uL for plasma/serum.). Free drug concentrations can be measured by using either equilibrium dialysis or, more commonly, devices with molecular cutoff filters such as the Amicon Centrifree micropartition system (Millipore Corporation, Bedford, Mass.) or the Worthington Diagnostics “ultrafree” system (Worthington, Jacksonville, Fla.). Plasma ultrafiltrate is obtained by centrifuging 1 mL of plasma in Amicon system and then deproteinising as described for serum/plasma previously (15, 40).
smiles,measurement,setting,value
Nc1ccn([C@H]2CC[C@@H](CO)O2)c(=O)n1 [Zalcitabine],Trough Concentration,[1],Undetectable
same,C max.,[2],<25 ng/mL
same,C min.,[2],undetectable
same,Vd,[2],0.5 L/kg
same,t ½,[2],2.0 h
same,Protein Bindings %,[3],<5%
CC(C)(C)NC(=O)[C@@H]1C[C@@H]2CCCC[C@@H]2CN1C[C@@H](O)[C@H](Cc1ccccc1)NC(=O)[C@H](CC(N)=O)NC(=O)c1ccc2ccccc2n1 [Saquinavir],Trough Concentration,[1],15 to 40 ng/mL
same,C max.,[2],500 ng/mL
same,Vd,[2],10 L/kg
same,t ½,[2],12 h
CC(C)c1nc(CN(C)C(=O)N[C@H](C(=O)N[C@@H](Cc2ccccc2)C[C@H](O)[C@H](Cc2ccccc2)NC(=O)OCc2cncs2)C(C)C)cs1 [Ritonavir],Saliva (s) vs Total Plasma (tp) regression equation,[4],s = 0.043tp + 109
same,"r, saliva vs total plasma",[4],0.991
same,correlation of free drug or saliva drug concentration with total drug concentration (in words),[4],good correlations
same,Trough Concentration,[1],1000 ng/mL
same,C max.,[2],14000 ng/mL
same,C min.,[2],1000 ng/mL
same,Vd,[2],0.4 L/kg
same,t ½,[2],4 h
Cc1ccnc2c1NC(=O)c1cccnc1N2C1CC1 [Nevirapine],Free Plasma (f) vs Total Plasma (tp) regression equation,[4],f = 0.36tp + 483
same,"r, free plasma vs total plasma",[4],0.909
same,"r, saliva vs total plasma",[4],0.901
same,correlation of free drug or saliva drug concentration with total drug concentration (in words),[4],good correlations
same,Trough Concentration,[1],3000 ng/mL
same,C max.,[2],20000 ng/mL
same,C min.,[2],3000 ng/mL
same,Vd,[2],1.2 L/kg
same,t ½,[2],30 h
same,Protein Bindings %,[3],60%
Cc1cn([C@H]2C=C[C@@H](CO)O2)c(=O)[nH]c1=O [Stavudine],Free Plasma (f) vs Total Plasma (tp) regression equation,[4],f = 0.66tp − 4
same,"r, free plasma vs total plasma",[4],0.924
same,"r, saliva vs total plasma",[4],0.909
same,correlation of free drug or saliva drug concentration with total drug concentration (in words),[4],good correlations
same,Trough Concentration,[1],20 ng/mL
same,C max.,[2],2000 ng/mL
same,C min.,[2],20 ng/mL
same,Vd,[2],1.0 L/kg
same,t ½,[2],1.1 h
Cc1cn([C@H]2C[C@H](N=[N+]=[N-])[C@@H](CO)O2)c(=O)[nH]c1=O [Zidovudine],Free Plasma (f) vs Total Plasma (tp) regression equation,[4],f = 0.14tp + 27
same,"r, free plasma vs total plasma",[4],0.907
same,correlation of free drug or saliva drug concentration with total drug concentration (in words),[4],good correlations
same,Trough Concentration,[1],<20 ng/mL
same,C max.,[2],1800 ng/mL
same,C min.,[2],<20 ng/mL
same,Vd,[2],1.4 L/kg
same,t ½,[2],1.2 h
same,Protein Bindings %,[3],<5%
CC(C)(C)NC(=O)[C@@H]1CN(Cc2cccnc2)CCN1C[C@@H](O)C[C@@H](Cc1ccccc1)C(=O)N[C@H]1c2ccccc2C[C@H]1O [Indinavir],C max.,[2],10000 ng/mL
O=c1[nH]cnc2c1ncn2[C@H]1CC[C@@H](CO)O1 [Didanosine],Free Plasma (f) vs Total Plasma (tp) regression equation,[4],f = 0.19tp + 47
same,"r, free plasma vs total plasma",[4],0.749
same,Saliva (s) vs Total Plasma (tp) regression equation,[4],s = 0.29tp + 20
same,"r, saliva vs total plasma",[4],0.912
same,correlation of free drug or saliva drug concentration with total drug concentration (in words),[4],good correlations
same,Trough Concentration,[1],100 to 300 ng/mL
same,C max.,[2],24000 ng/mL
same,Vd,[2],0.8 L/kg
Cc1c(O)cccc1C(=O)N[C@@H](CSc1ccccc1)[C@H](O)CN1C[C@H]2CCCC[C@H]2C[C@H]1C(=O)NC(C)(C)C [Nelfinavir],Saliva (s) vs Total Plasma (tp) regression equation,[4],s = 0.0026tp + 78
same,"r, saliva vs total plasma",[4],0.047
same,correlation of free drug or saliva drug concentration with total drug concentration (in words),[4],not
same,Trough Concentration,[1],1000 ng/mL
same,C max.,[2],4000 ng/mL
same,C min.,[2],1000 ng/mL
same,Vd,[2],4 L/kg
same,t ½,[2],5 h
same,Protein Bindings %,[3],98%
Nc1ccn([C@@H]2CS[C@H](CO)O2)c(=O)n1 [Lamivudine],Trough Concentration,[1],100 to 1000 ng/mL
same,C max.,[2],1800 ng/mL
Cc1cccc(C)c1OCC(=O)N[C@@H](Cc1ccccc1)[C@@H](O)C[C@H](Cc1ccccc1)NC(=O)[C@H](C(C)C)N1CCCNC1=O [Lopinavir],Saliva (s) vs Total Plasma (tp) regression equation,[4],s = 0.05tp + 194
same,"r, saliva vs total plasma",[4],0.777
same,correlation of free drug or saliva drug concentration with total drug concentration (in words),[4],good correlations
CC(C)Nc1cccnc1N1CCN(C(=O)c2cc3cc(NS(C)(=O)=O)ccc3[nH]2)CC1 [Delavirdine],Trough Concentration,[1],3000 to 8000 ng/mL
same,C max.,[2],16000 ng/mL
same,C min.,[2],3000 ng/mL
same,t ½,[2],6 h
same,Protein Bindings %,[3],99%
